From patent US20240009239A1, “THERAPEUTIC TARGETING OF MESOTHELIN IN ACUTE MYELOID LEUKEMIA WITH CHIMERIC ANTIGEN RECEPTOR T CELL THERAPY” (FRED HUTCHINSON CANCER CENTER, priority 2020, published 2024) come the findings set out here.

Structures are written as SMILES.

The test system of series [1] is ADAM17-mediated MSLN shedding. Nature of the series: Cell surface mesothelin on Nomo-1 by flow cytometry after GM6001. It is filed as cell-based. The conditions noted are these: Nomo-1 cells, GM6001 50 uM, 48 hours, vs DMSO control.
Description: Cell surface abundance and viability were measured by flow cytometry (FIG. 2A) and shed MSLN was quantified by ELISA (FIG. 2B). […] Data presented are mean tumor specific lysis+/−standard deviation from 3 technical replicates at indicated E:T ratios for 3 independent experiments. […] Secreted levels of IFN-g (left panel) and TNF-a (right panel) were measured after 8 hours of T cell/AML co-culture at E:T 10:1 by ELISA. Data presented are mean+/−standard deviation from 3 technical replicates. Statistical significance was determined by unpaired Student's t test, assuming unequal variances. p<0.05(*), p<0.005(**), p<0.0005(***).
Nomo-1 and Kasumi-1 were obtained from ATCC and maintained in RPMI with FBS (10% for Nomo-1, 20% for Kasumi-1) and L-glutamine (2 mM). […] The Kasumi-1 MSLN+ cell line was engineered by transducing Kasumi-1 cells with a lentivirus encoding MSLN driven by the ELF1a promoter.
For in vivo CAR T study, Nomo-1 cells, which express endogenous level of MSLN, and Kasumi-1 cells engineered to express MSLN with a lentivirus construct (Kasumi-1 MSLN+) were transplanted into NSG mice. Mock transduced MSLN-directed CAR T cells were infused 1 week (Nomo-1) and 2 weeks (Kasumi-1 MSLN+) following leukemic cell injection. Leukemic burden was measured by bioluminescence IVIS imaging weekly.
The subject of another series is Nomo-1 cells. Nature of the series: Viability of Nomo-1 cells after GM6001 without CAR T cells. Format: cell-based. To be noted: GM6001 treatment, data not shown. The text has this:
FIGS. 2A-2D. […] FIGS. 2A-2B. […] FIG. 2C. […] FIG. 2D.
AML cell lines and GM6001 treatment.

Take `CNC(=O)[C@H](Cc1c[nH]c2ccccc12)NC(=O)[C@@H](CC(=O)NO)CC(C)C` [GM6001]: the “level of cell surface mesothelin” value in series [1] is on record as “increased”. Also, the “cell viability of Nomo-1 cells in the absence of CAR T cells” value with Nomo-1 cells was “did not significantly impact”.
